According to patent US7691858B2, “Kinase inhibitors and methods of use thereof” (TargeGen, Inc., priority 2006, dated 2010):

How the values were obtained:
Assay in all cases: Kinase panel screen
Format in all cases: biochemical
[1] = target: T1, GSK3a (Homo sapiens, UniProt P49840); settings: Compound I and ATP 10 μM
T1 construct: purchased Upstate USA or Invitrogen (commercial screening service)

[2] = target: T2, CK18 (Homo sapiens, UniProt P48730); settings: Compound I and ATP 10 μM
T2 construct: purchased Upstate USA or Invitrogen (contract screening service)

[3] = target: T3, ALK (Homo sapiens, UniProt Q9UM73); settings: Compound I and ATP 10 μM
T3 construct: purchased Upstate USA or Invitrogen (contract screening service)

[4] = target: T4, IKKβ (Homo sapiens, UniProt O14920); settings: Compound I and ATP 10 μM
T4 construct: purchased Upstate USA or Invitrogen (commercial screening service)

[5] = target: T5, FGFR3 (Homo sapiens, UniProt P22607); settings: Compound I and ATP 10 μM
T5 construct: purchased Upstate USA or Invitrogen (contract screening service)

[6] = target: T6, Blk (Mus musculus, UniProt P16277); settings: Compound I and ATP 10 μM
T6 construct: purchased Upstate USA or Invitrogen (commercial screening service)

[7] = target: T7, cKit (Homo sapiens, UniProt P10721); settings: Compound I and ATP 10 μM
T7 construct: purchased Upstate USA or Invitrogen (commercial screening service)

[8] = target: T8, Axl (Homo sapiens, UniProt P30530); settings: Compound I and ATP 10 μM
T8 construct: purchased Upstate USA or Invitrogen (contract screening service)

[9] = target: T9, ROCK-I (Homo sapiens, UniProt Q13464); settings: Compound I and ATP 10 μM
T9 construct: purchased Upstate USA or Invitrogen (commercial screening service)

[10] = target: T10, PKCa (Homo sapiens, UniProt P17252); settings: Compound I and ATP 10 μM
T10 construct: purchased Upstate USA or Invitrogen (contract screening service)

[11] = target: T11, Fer (Homo sapiens, UniProt P16591); settings: Compound I and ATP 10 μM
T11 construct: purchased Upstate USA or Invitrogen (contract screening service)

[12] = target: T12, DDR2 (Homo sapiens, UniProt Q16832); settings: Compound I and ATP 10 μM
T12 construct: purchased Upstate USA or Invitrogen (commercial screening service)

[13] = target: T13, SAPK3 (Homo sapiens, UniProt P53778); settings: Compound I and ATP 10 μM
T13 construct: purchased Upstate USA or Invitrogen (commercial screening service)

[14] = target: T14, cSrc (Homo sapiens, UniProt P12931); settings: Compound I and ATP 10 μM
T14 construct: purchased Upstate USA or Invitrogen (commercial screening service)

[15] = target: T15, Rsk1 (Rattus norvegicus, UniProt Q63531); settings: Compound I and ATP 10 μM
T15 construct: purchased Upstate USA or Invitrogen (commercial screening service)

[16] = target: T16, PKC0 (Homo sapiens, UniProt Q04759); settings: Compound I and ATP 10 μM
T16 construct: purchased Upstate USA or Invitrogen (commercial screening service)

[17] = target: T17, TrkA (Homo sapiens, UniProt P04629); settings: Compound I and ATP 10 μM
T17 construct: purchased Upstate USA or Invitrogen (contract screening service)

[18] = target: T18, CHK2 (Homo sapiens, UniProt O96017); settings: Compound I and ATP 10 μM
T18 construct: purchased Upstate USA or Invitrogen (contract screening service)

[19] = target: T19, CDK2 (Homo sapiens, UniProt P24941); settings: Compound I and ATP 10 μM
T19 construct: purchased Upstate USA or Invitrogen (commercial screening service)

[20] = target: T20, Rsk3 (Homo sapiens, UniProt Q15349); settings: Compound I and ATP 10 μM
T20 construct: purchased Upstate USA or Invitrogen (commercial screening service)

[21] = target: T21, PKD2 (Homo sapiens, UniProt Q9BZL6); settings: Compound I and ATP 10 μM
T21 construct: purchased Upstate USA or Invitrogen (contract screening service)

[22] = target: T22, MST1 (Homo sapiens, UniProt Q13043); settings: Compound I and ATP 10 μM
T22 construct: purchased Upstate USA or Invitrogen (commercial screening service)

[23] = target: T23, CDK6 (Homo sapiens, UniProt Q00534); settings: Compound I and ATP 10 μM
T23 construct: purchased Upstate USA or Invitrogen (contract screening service)

[24] = target: T24, MKK7b (Homo sapiens, UniProt O14733); settings: Compound I and ATP 10 μM
T24 construct: purchased Upstate USA or Invitrogen (contract screening service)

[25] = target: T25, MAPK3 (Homo sapiens, UniProt P27361); settings: Compound I at 1 μM and ATP at the apparent Km
T25 construct: purchased Upstate USA or Invitrogen (commercial screening service)

[26] = target: T26, Fgr (Homo sapiens, UniProt P09769); settings: Compound I and ATP 10 μM
T26 construct: purchased Upstate USA or Invitrogen (contract screening service)

[27] = target: T27, PKCpi (Homo sapiens, UniProt P05771); settings: Compound I and ATP 10 μM
T27 construct: purchased Upstate USA or Invitrogen (commercial screening service)

[28] = target: PKA (Homo sapiens, UniProt P17612); settings: Compound I and ATP 10 μM
[29] = target: T28, NEK6 (Homo sapiens, UniProt Q9HC98); settings: Compound I and ATP 10 μM
T28 construct: purchased Upstate USA or Invitrogen (commercial screening service)

[30] = target: T29, PKCi (Homo sapiens, UniProt P41743); settings: Compound I and ATP 10 μM
T29 construct: purchased Upstate USA or Invitrogen (commercial screening service)

[31] = target: T30, PAK4 (Homo sapiens, UniProt O96013); settings: Compound I and ATP 10 μM
T30 construct: purchased Upstate USA or Invitrogen (commercial screening service)

[32] = target: EphA2 (Homo sapiens, UniProt P29317); settings: Compound I and ATP 10 μM
[33] = target: T31, Flt3 (Homo sapiens, UniProt P36888); settings: Compound I and ATP 10 μM
T31 construct: purchased Upstate USA or Invitrogen (commercial screening service)

[34] = target: T32, TAK1 (Homo sapiens, UniProt O43318); settings: Compound I and ATP 10 μM
T32 construct: purchased Upstate USA or Invitrogen (contract screening service)

[35] = target: T33, CSK (Homo sapiens, UniProt P41240); settings: Compound I and ATP 10 μM
T33 construct: purchased Upstate USA or Invitrogen (commercial screening service)

[36] = target: Akt2 (Homo sapiens, UniProt P31751); settings: Compound I at 1 μM and ATP at the apparent Km
[37] = target: T34, PRK2 (Homo sapiens, UniProt Q16513); settings: Compound I and ATP 10 μM
T34 construct: purchased Upstate USA or Invitrogen (contract screening service)

[38] = target: T35, CDK5 (Homo sapiens, UniProt Q00535); settings: Compound I and ATP 10 μM
T35 construct: purchased Upstate USA or Invitrogen (commercial screening service)

[39] = target: T36, PKCpiI (Homo sapiens, UniProt P05771); settings: Compound I and ATP 10 μM
T36 construct: purchased Upstate USA or Invitrogen (commercial screening service)

[40] = target: T37, CDK1 (Homo sapiens, UniProt P06493); settings: Compound I and ATP 10 μM
T37 construct: purchased Upstate USA or Invitrogen (commercial screening service)

[41] = target: T38, ASK1 (Homo sapiens, UniProt Q99683); settings: Compound I and ATP 10 μM
T38 construct: purchased Upstate USA or Invitrogen (contract screening service)

[42] = target: T39, PRAK (Homo sapiens, UniProt Q8IW41); settings: Compound I and ATP 10 μM
T39 construct: purchased Upstate USA or Invitrogen (contract screening service)

[43] = target: T40, Lyn (Mus musculus, UniProt P25911); settings: Compound I and ATP 10 μM
T40 construct: purchased Upstate USA or Invitrogen (commercial screening service)

T39 sequence (Q8IW41 whole entry): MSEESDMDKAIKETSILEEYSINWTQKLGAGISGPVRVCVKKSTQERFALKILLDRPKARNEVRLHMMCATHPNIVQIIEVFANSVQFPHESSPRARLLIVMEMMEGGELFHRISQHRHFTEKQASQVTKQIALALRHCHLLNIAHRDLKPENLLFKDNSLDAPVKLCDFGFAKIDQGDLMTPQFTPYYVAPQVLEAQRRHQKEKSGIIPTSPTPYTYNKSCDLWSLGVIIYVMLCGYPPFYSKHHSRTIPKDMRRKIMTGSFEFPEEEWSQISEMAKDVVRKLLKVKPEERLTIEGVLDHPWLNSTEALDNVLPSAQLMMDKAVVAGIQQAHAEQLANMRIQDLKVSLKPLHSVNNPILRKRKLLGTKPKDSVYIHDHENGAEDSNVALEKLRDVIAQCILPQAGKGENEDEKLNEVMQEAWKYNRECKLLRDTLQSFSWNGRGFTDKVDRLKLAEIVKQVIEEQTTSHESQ
Sequence of EphA2 (P29317 24-976): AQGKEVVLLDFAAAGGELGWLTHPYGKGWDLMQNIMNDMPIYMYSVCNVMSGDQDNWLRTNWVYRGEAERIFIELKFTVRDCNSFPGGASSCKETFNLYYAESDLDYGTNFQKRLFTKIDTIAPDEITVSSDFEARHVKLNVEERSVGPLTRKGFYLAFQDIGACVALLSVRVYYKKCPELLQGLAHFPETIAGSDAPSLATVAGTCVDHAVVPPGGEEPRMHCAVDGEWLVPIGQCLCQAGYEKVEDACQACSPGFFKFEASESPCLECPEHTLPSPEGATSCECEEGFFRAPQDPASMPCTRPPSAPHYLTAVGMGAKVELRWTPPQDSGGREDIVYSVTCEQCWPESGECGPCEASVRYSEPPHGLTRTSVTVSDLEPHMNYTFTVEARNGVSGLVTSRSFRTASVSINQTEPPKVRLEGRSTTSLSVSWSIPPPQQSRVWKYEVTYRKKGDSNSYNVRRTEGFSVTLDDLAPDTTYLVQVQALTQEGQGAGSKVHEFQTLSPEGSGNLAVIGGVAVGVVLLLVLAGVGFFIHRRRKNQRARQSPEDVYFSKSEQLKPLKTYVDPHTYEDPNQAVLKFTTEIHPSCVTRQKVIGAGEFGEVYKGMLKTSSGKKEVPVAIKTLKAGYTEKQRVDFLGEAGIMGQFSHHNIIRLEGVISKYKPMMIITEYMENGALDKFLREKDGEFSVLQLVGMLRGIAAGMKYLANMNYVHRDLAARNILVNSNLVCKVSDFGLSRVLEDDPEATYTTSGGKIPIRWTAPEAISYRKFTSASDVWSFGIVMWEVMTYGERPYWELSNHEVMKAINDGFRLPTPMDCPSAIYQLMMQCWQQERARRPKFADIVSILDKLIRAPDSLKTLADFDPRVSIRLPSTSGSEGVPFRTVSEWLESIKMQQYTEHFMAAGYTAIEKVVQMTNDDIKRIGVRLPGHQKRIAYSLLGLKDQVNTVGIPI
T21 sequence (Q9BZL6 whole entry): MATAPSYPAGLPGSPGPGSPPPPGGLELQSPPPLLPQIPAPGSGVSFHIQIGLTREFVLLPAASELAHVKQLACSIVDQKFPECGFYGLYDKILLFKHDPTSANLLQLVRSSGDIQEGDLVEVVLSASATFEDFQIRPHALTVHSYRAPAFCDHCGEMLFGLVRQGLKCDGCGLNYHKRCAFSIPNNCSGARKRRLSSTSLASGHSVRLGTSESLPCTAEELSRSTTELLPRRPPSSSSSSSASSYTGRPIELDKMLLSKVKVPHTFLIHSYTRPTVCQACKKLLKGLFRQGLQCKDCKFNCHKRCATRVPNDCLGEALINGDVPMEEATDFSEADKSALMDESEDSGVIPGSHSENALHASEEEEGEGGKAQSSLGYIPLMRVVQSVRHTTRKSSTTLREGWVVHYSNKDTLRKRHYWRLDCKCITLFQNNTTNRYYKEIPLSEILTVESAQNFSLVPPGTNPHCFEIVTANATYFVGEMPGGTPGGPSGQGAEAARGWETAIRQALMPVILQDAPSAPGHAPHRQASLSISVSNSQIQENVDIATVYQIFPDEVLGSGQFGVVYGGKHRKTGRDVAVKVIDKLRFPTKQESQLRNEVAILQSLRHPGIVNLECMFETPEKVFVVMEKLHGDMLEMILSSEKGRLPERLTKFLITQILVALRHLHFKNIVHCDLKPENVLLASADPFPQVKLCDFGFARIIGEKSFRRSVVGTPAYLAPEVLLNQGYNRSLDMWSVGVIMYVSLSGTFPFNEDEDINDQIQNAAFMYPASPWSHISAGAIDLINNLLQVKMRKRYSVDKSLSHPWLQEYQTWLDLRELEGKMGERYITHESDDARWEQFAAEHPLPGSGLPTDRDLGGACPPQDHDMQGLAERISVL
T34 sequence (Q16513 whole entry): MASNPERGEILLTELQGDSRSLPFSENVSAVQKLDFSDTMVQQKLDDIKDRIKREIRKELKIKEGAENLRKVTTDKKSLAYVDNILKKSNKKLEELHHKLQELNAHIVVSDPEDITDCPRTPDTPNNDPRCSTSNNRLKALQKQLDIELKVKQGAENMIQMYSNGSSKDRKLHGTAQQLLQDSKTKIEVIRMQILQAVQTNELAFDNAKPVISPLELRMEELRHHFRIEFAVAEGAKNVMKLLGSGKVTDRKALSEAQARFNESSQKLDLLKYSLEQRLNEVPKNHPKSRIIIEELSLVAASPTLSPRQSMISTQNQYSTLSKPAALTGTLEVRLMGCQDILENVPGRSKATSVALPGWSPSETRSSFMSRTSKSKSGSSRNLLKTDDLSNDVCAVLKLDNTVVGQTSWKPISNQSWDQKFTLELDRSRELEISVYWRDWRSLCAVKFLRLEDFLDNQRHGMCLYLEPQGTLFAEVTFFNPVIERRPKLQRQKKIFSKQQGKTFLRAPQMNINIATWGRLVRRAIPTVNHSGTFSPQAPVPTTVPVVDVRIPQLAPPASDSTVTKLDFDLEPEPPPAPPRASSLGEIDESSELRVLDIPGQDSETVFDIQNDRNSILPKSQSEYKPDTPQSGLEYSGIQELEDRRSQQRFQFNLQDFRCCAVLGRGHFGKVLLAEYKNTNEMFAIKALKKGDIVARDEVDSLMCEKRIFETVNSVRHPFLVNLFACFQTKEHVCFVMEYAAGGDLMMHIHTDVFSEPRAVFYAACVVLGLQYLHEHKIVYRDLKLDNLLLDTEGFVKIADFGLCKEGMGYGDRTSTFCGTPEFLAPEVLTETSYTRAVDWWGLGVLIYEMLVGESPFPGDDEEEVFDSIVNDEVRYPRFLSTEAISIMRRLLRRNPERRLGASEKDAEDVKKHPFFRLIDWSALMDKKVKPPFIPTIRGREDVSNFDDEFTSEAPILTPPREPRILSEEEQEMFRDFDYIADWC
T36 sequence (P05771 1-673 isoform P05771-2): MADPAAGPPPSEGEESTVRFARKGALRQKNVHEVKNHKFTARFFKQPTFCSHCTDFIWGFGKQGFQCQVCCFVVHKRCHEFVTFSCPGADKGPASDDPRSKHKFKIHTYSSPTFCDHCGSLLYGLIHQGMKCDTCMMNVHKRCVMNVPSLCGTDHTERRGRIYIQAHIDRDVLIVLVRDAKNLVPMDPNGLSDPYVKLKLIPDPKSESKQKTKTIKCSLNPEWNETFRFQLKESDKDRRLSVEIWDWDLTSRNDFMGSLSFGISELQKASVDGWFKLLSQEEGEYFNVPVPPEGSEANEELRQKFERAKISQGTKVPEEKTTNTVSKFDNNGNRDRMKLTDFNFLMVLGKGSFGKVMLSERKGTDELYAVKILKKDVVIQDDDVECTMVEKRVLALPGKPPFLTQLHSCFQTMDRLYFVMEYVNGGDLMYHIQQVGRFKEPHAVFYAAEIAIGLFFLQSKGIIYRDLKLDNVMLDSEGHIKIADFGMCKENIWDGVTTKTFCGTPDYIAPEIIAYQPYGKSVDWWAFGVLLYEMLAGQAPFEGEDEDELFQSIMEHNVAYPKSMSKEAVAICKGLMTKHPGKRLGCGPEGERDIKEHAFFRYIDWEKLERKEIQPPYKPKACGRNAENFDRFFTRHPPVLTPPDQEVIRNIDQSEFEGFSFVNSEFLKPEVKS
T28 sequence (Q9HC98 whole entry): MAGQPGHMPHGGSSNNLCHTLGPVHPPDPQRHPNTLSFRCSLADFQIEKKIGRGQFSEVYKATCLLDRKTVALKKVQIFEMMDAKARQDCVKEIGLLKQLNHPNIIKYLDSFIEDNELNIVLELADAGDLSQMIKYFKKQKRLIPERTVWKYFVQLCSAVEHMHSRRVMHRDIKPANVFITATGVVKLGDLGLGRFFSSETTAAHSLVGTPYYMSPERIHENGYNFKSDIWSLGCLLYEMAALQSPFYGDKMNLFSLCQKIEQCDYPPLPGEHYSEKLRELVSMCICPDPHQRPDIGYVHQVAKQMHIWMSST

How did the “Percent Control, GSK3a” value [1] turn out when Nc1nc(N)c2nc(-c3cccc(O)c3)c(-c3cccc(O)c3)nc2n1 [Compound I, 6,7-bis-(3-hydroxyphenyl)-pteridine-2,4-diamine] was run?
Its value is 62%.

What about the “Percent Control, CK18” value [2] of the same compound?
Its value is 24%.

What about the “Percent Control, ALK” value [3] of the same compound?
The value was 48%.

And the “Percent Control, IKKβ” value [4]?
Its value is 68%.

What about the “Percent Control, FGFR3” value [5] of the same compound?
Its value is 66%.

What about the “Percent Control, Blk (m)” value [6] of the same compound?
Its value is 57%.

What about the “Percent Control, cKit” value [7] of the same compound?
Its value is 96%.

What about the “Percent Control, Axl” value [8] of the same compound?
Its value is 76%.

And the “Percent Control, ROCK-I” value [9]?
Its value is 93%.

What about the “Percent Control, PKCa” value [10] of the same compound?
The value was 90%.

And the “Percent Control, Fer” value [11]?
The value was 80%.

What about the “Percent Control, DDR2” value [12] of the same compound?
Its value is 88%.

And the “Percent Control, SAPK3” value [13]?
The value was 98%.

What about the “Percent Control, cSrc” value [14] of the same compound?
Its value is 53%.

What about the “Percent Control, Rsk1 (r)” value [15] of the same compound?
Its value is 86%.

What about the “Percent Control, PKC0” value [16] of the same compound?
Its value is 73%.

What about the “Percent Control, TrkA” value [17] of the same compound?
Its value is 57%.

And the “Percent Control, CHK2” value [18]?
The value was 75%.

What about the “Percent Control, CDK2 (second entry)” value [19] of the same compound?
The value was 77%.

What about the “Percent Control, Rsk3” value [20] of the same compound?
The value was 90%.

What about the “Percent Control, PKD2” value [21] of the same compound?
The value was 37%.

What about the “Percent Control, MST1” value [22] of the same compound?
The value was 107%.

What about the “Percent Control, CDK6” value [23] of the same compound?
The value was 83%.

What about the “Percent Control, MKK7b” value [24] of the same compound?
The value was 79%.

And the “Percent Control, MAPK3*” value [25]?
Its value is 99%.

What about the “Percent Control, Fgr” value [26] of the same compound?
The value was 72%.

And the “Percent Control, PKCpi” value [27]?
The value was 90%.

What about the “Percent Control, PKA” value [28] of the same compound?
The value was 93%.

And the “Percent Control, NEK6” value [29]?
The value was 97%.

What about the “Percent Control, PKCi” value [30] of the same compound?
Its value is 105%.

And the “Percent Control, PAK4” value [31]?
The value was 78%.

What about the “Percent Control, EphA2” value [32] of the same compound?
The value was 29%.

What about the “Percent Control, Flt3” value [33] of the same compound?
The value was 80%.

What about the “Percent Control, TAK1” value [34] of the same compound?
Its value is 65%.

What about the “Percent Control, CSK” value [35] of the same compound?
Its value is 114%.

What about the “Percent Control, Akt2*” value [36] of the same compound?
The value was 103%.

What about the “Percent Control, PRK2” value [37] of the same compound?
Its value is 83%.

And the “Percent Control, CDK5” value [38]?
The value was 82%.

What about the “Percent Control, PKCpiI” value [39] of the same compound?
The value was 80%.

And the “Percent Control, CDK1” value [40]?
The value was 54%.

What about the “Percent Control, ASK1” value [41] of the same compound?
The value was 105%.

And the “Percent Control, PRAK” value [42]?
The value was 63%.

And the “Percent Control, Lyn (m)” value [43]?
Its value is 41%.
